For two compounds, Compound recovery, Retention_time and AUCmet/AUCp results are on record in ChEMBL document CHEMBL3525983, “Pharmacokinetics, metabolism, and disposition of rivoglitazone, a novel peroxisome proliferator-activated receptor γ agonist, in rats and monkeys” (Drug Metab Dispos, 2011).

A short description of series [1]: Drug excretion in F344/DuCrlCrlj rat feces treated with [14C]rivoglitazone at 1 mg/kg, po administered via gavage measured during 0 to 48 hrs by radio-HPLC analysis. Particulars: in vivo. In kind it is ADME, organism-based. Further details: dose 1 mg/kg, dosed compound name [14C]Rivoglitazone, route oral.
Series [2] in a line: Retention time of the compound by LC-MS/MS analysis. In kind it is physicochemical. Further details: dosed compound name [14C]Rivoglitazone.
The nature of series [3]: Drug excretion in F344/DuCrlCrlj rat urine/bile treated with [14C]rivoglitazone at 1 mg/kg, po administered via gavage measured during 0 to 48 hrs by radio-HPLC analysis. In kind it is ADME, organism-based. Further details: dose 1 mg/kg, dosed compound name [14C]Rivoglitazone, route oral. Particulars: in vivo.
The nature of series [4]: Drug excretion in F344/DuCrlCrlj rat urine/feces treated with [14C]rivoglitazone at 1 mg/kg, po administered via gavage measured during 0 to 48 hrs by radio-HPLC analysis. In kind it is ADME, organism-based. More on the design: dose 1 mg/kg, dosed compound name [14C]Rivoglitazone, route oral. The settings on record: in vivo.
Series [5] can be described thus: Drug excretion in monkey feces treated with [14C]rivoglitazone at 1 mg/kg, po administered via gavage measured during 0 to 72 hrs by radio-HPLC analysis. In kind it is ADME, organism-based, Macaca mulatta. Further details: dose 1 mg/kg, dosed compound name [14C]Rivoglitazone, route oral. The settings on record: rhesus monkey, in vivo.
Series [6] can be described thus: Drug excretion in monkey urine/feces treated with [14C]rivoglitazone at 1 mg/kg, po administered via gavage measured during 0 to 72 hrs by radio-HPLC analysis. In kind it is ADME, organism-based, Macaca mulatta. More on the design: dose 1 mg/kg, dosed compound name [14C]Rivoglitazone, route oral. Particulars: rhesus monkey, in vivo.
Another series relates to Rattus norvegicus. In words: Drug level in F344/DuCrlCrlj rat plasma treated with [14C]rivoglitazone assessed as ratio of molar basis AUC (0 to t) at 1 mg/kg, po administered via gavage by LC-MS/MS analysis. The settings on record: in vivo. It counts as ADME, organism-based. Further details: dose 1 mg/kg, dosed compound name [14C]Rivoglitazone, route oral.
The subject of a further series is Rhesus monkey. In words: Drug level in monkey plasma treated with [14C]rivoglitazone assessed as ratio of molar basis AUC (0 to t) at 1 mg/kg, po administered via gavage by LC-MS/MS analysis. It counts as ADME, organism-based, Macaca mulatta. Further details: dose 1 mg/kg, dosed compound name [14C]Rivoglitazone, route oral. The settings on record: in vivo.
The nature of series [7]: Drug excretion in F344/DuCrlCrlj rat bile treated with [14C]rivoglitazone at 1 mg/kg, po administered via gavage measured during 0 to 48 hrs by radio-HPLC analysis. Further details: dose 1 mg/kg, dosed compound name [14C]Rivoglitazone, route oral. It counts as ADME, organism-based. The settings on record: in vivo.
Series [8] is described as follows: Drug excretion in F344/DuCrlCrlj rat urine treated with [14C]rivoglitazone at 1 mg/kg, po administered via gavage measured during 0 to 48 hrs by radio-HPLC analysis. It counts as ADME, organism-based. More on the design: dose 1 mg/kg, dosed compound name [14C]Rivoglitazone, route oral. Particulars: in vivo.

On to `COc1ccc2nc(COc3ccc(CC(SC)C(=O)O)cc3)n(C)c2c1` (stereo unspecified), for which the Compound recovery is given as 3% in series [1]; “metabolite_not_detected” in series [3]; 3% in series [4]; 0.8% in series [5]; 0.8% in series [6]. The Retention_time in [2] was found to be 24.1 min. The figures for the AUCmet/AUCp in the series with Rattus norvegicus and in the series with Rhesus monkey were 0.01% and 0.25%, respectively.
On to `COc1ccc2nc(COc3ccc(CC(C(N)=O)[S+](C)[O-])cc3)n(C)c2c1` (stereo unspecified), for which the Compound recovery result in series [1] is given as “metabolite_not_detected”; in series [7], 0.6%; in series [3], 4.5%; in series [8], 3.9%; in [4], 3.9%. In series [2], the Retention_time was 16.1 min. The results for the AUCmet/AUCp with Rattus norvegicus and in the series with Rhesus monkey were 0.08% and 0.11%, respectively.
